Reference: patent publication US8598316B2, “Molecules that selectively home to vasculature of pre-malignant dysplastic lesions or malignancies” (priority 2003, dated 2013)

Experiments:
[1] = tested on: K14-HPV16 tumor-derived cell suspension; assay: Ex vivo phage binding to tumor cell suspension; type: cell-based, mouse; conditions: phage-displayed peptide
Experimental: (§1) To isolate peptides specific for dysplastic lesions, two rounds of selection were performed ex vivo followed by one round of selection in vivo. […] Phage selections and validations were performed essentially as described in Laakkonen et al., Nat. Med. 8:751-755 (2002).
(§2) To isolate phage that selectively home to squamous cell carcinomas (SCCs), two rounds of ex vivo panning selections were performed followed by two rounds of in vivo panning in K14-HPV16 mice having tumors histologically confirmed as squamous cell carcinoma grades II-IV (Coussens, supra, 1996). The enrichment rose from 6-fold relative to non-recombinant phage in the second ex vivo round to greater than 70-fold relative to non-recombinant phage in the second in vivo round (the fourth sequential round overall) as shown in FIG. 1B. From 192 sequenced phage clones, fifteen were selected for further analysis based on their frequency (48 from ex vivo round 2, 48 from in vivo round 1, and 96 from in vivo round 2) and their increased prevalence in the in vivo selections. Of these, four clones displaying the following amino acid sequences bound to a K14-HPV16 tumor-derived cell suspension ex vivo: CGKRK (SEQ ID NO: 6), CGTKRKC (SEQ ID NO: 11), CDTAVVEGL (SEQ ID NO: 12) and CDTRL (SEQ ID NO: 7). Phage-displaying the sequence CDTAVVEGL (SEQ ID NO: 12) also were 340-fold enriched in tumors in vivo relative to non-recombinant control phage.

squamous cell carcinomas = assay: In vivo homing of individual phage clones to skin tumors of K14-HPV16 mice; set-up: species or system mouse; conditions: phage-displayed peptide, intravenous injection, tumor-bearing K14-HPV16 mice
Text: (§3) To test homing specificity of the selected peptides, purified phage displaying a single recombinant sequence were intravenously injected into K14HPV16 mice bearing protuberant ear or trunk tumors at 9 to 12 months of age to assess homing to squamous cell carcinomas, or alternatively injected into younger K14HPV16 mice presenting with multifocal dysplasias but no tumors. Both neoplastic tissues and normal control organs were collected and assayed for phage accumulation. Phage displaying the peptide CRAKSKVAC (SEQ ID NO: 9), which appeared with the highest frequency in both the ex vivo and in vivo sequence pools (5 and 15 times, respectively), were 1500-fold enriched in dysplastic skin relative to non-recombinant control phage. However, phage displaying peptide. […] Several other dysplasia-selected clones also differentiated poorly between control tissues and dysplastic skin; seven of the nine dysplasia-selected phage clones appeared to be responsible for the overall enrichment of recombinant phage in control tissues in the final in vivo round of selection as shown in FIG. 1A (right panel), and were not studied further.
as §2

[2] = tested on: dysplastic skin vasculature and tumor vasculature; assay: Localization of intravenously injected fluorescein-labeled peptides in K14-HPV16 mice (Meca-32 staining); type: in vivo, mouse; conditions: intravenous, 10 minutes; for peptide localization in dysplastic skin of tumor-bearing mice / peptide localization in squamous tumor: tumor-bearing K14-HPV16 mice; for peptide localization in dysplastic skin of non-tumor-bearing mice: younger dysplasia-bearing K14-HPV16 mice
Experimental: Both younger dysplasia-bearing and older tumor-bearing K14-HPV16 mice were injected with fluorescein-labeled peptides. After 10 minutes, both normal and neoplastic tissues were collected; tissue sections were prepared and stained with antibodies to both CD31 and a second endothelial marker, the cell-surface antigen Meca-32. Similar results were obtained with the two endothelial marker antibodies; the data for Meca-32 are shown in FIG. 3, in which localization of intravenously infused peptides and antibody was visualized by two-color fluorescence microscopy.
(§4) Areas of skin, tumors and various organs were collected and either fixed in formalin, dehydrated through serial alcohols and embedded in paraffin, or directly embedded in OCT medium (Fisher Scientific). K14-HPV16 dysplasia and tumor samples were graded by evaluating hematoxylin & eosin and anti-keratin staining on 5 μm paraffin sections under a light microscope (Coussens et al., supra, 1996). Rat anti-mouse CD31 and rat anti-mouse Meca-32 (BD Pharmingen; San Diego, Calif.) were used for vascular immunostaining on 10 μm frozen sections. Anti-phage staining and biodistribution of fluorescein-labeled peptides were performed essentially as described in Laakkonen et al., supra, 2002.

[3] = tested on: PDSC5, a K14-HPV16 tumor-derived cell line; assay: Fluorescein-labeled peptide homing, PDSC5 subcutaneous transplant tumor; type: in vivo, mouse; conditions: intravenous, subcutaneous tumor in FVB/n mice
Experimental: (§5) To analyze homing selectivity, the K14-HPV16 squamous cell cancer-homing peptides, CGKRK (SEQ ID NO: 6) and CDTRL (SEQ ID NO: 7), were analyzed for the ability to home to endothelium in tumors of different tissue origins and in tumors localized to different anatomical locations. In particular, three subcutaneously implanted tumors and two tumors produced in transgenic animal models were examined for accumulation of fluorescein-labeled peptides following intravenous injection
(§6) RIP1-Tag2 mice were used at 12 weeks of age, at which time all mice had pancreatic islet tumors. MMTV-PyMT mice were 4 to 6 months old and carried palpable mammary tumors. Cells for subcutaneous inoculation to produce transplant tumors were cultured in 10% fetal calf serum (FCS) in Dulbecco's Modified Eagle's Media (DMEM). Tumors were generated by subcutaneously injecting 10^6 cells into the chest skin of FVB/n (PDSC5) or Balb/c nude (MDA-MB-435 and C8161) mice. Mice bearing subcutaneous transplant tumors had tumors with an approximate diameter of 1 centimeter. PDSC5 tumors and MDA-MB-435 xenografts reached this size about 9 weeks post-injection while C8161 xenografts reached a size of 1 cm about three weeks post-injection.

[4] = tested on: C8161 human melanoma line; assay: Fluorescein-labeled peptide homing, C8161 xenograft; type: in vivo, mouse; conditions: intravenous, subcutaneous tumor in Balb/c nude mice
Experimental: as §5, §6

[5] = tested on: breast carcinomas in the MMTV-PyMT transgenic mouse model; assay: Fluorescein-labeled peptide homing, MMTV-PyMT transgenic model; type: in vivo; conditions: intravenous
Experimental: as §5, §6

[6] = tested on: MDA-MB-435 human breast cancer line; assay: Fluorescein-labeled peptide homing, MDA-MB-435 xenograft; type: in vivo, mouse; conditions: for homing to MDA-MB-435 xenograft: intravenous, subcutaneous tumor in Balb/c nude mice
Experimental: as §5, §6

[7] = tested on: normal skin and control tissues; assay: In vivo phage accumulation in normal skin, hyperplastic skin and control organs; set-up: species or system mouse; conditions: phage-displayed peptide; for homing to normal skin of FVB/n mice: wild-type FVB/n mice; for accumulation in control tissues / normal organs: intravenous injection
Text: as §3

cultured tumor cells = assay: Binding to cultured tumor cells; type: cell-based
[8] = tested on: angiogenic islets (dysplasias) or tumors in the RIP-Tag transgenic mouse model of pancreatic islet cell carcinoma; assay: Fluorescein-labeled peptide homing, RIP-Tag transgenic model; type: in vivo; conditions: intravenous
Experimental: as §5, §6

[9] = tested on: CD31-positive endothelial cells; assay: Immunohistochemical localization of intravenously injected phage (anti-T7 / anti-CD31); type: in vivo, mouse; conditions: phage-displayed peptide, intravenous; 4 to 6 month-old dysplasia-bearing or 9 to 12 month-old tumor-bearing K14-HPV16 mice
Text: To characterize the nature of the selectivity of the dysplasia- and tumor-homing peptides, K14-HPV16 mice were intravenously injected with cloned phage displaying a particular peptide, and phage localization visualized using histological procedures. Peptide localization was further analyzed with chemically synthesized fluorescein-labeled peptides.
Phage were intravenously injected into 4 to 6 month-old dysplasia-bearing mice with dysplasia-homing phage bearing CSRPRRSEC (SEQ ID NO: 3). In parallel, a set of 9 to 12 month-old tumor-bearing mice were infused with one of the tumor-homing phage CGTKRKC (SEQ ID NO: 11), CGKRK (SEQ ID NO: 6) or CDTRL (SEQ ID NO: 7). Various tissues were collected from each mouse and analyzed by double label immunohistochemical staining using an anti-T7 antibody to detect phage and an anti-CD31 antibody to detect endothelial cells of the vasculature.
as §4

dysplastic skin lesions = assay: In vivo homing of individual phage clones to dysplastic skin of K14HPV16 mice; set-up: species or system mouse; conditions: phage-displayed peptide, intravenous injection
Experimental: as §1, §3

[10] = tested on: hyperplastic skin of 1 to 2 month-old K14-HPV16 mice; assay: Ex vivo phage binding to hyperplastic skin; type: cell-based, mouse; conditions: phage-displayed peptide
mitochondrial membranes = conditions: at a concentration of 10 μM; cited from earlier work

| Substance | binding to K14-HPV16 tumor-derived cell suspension ex vivo [1] | peptide localization in dysplastic skin of tumor-bearing mice [2] | peptide localization in squamous tumor [2] | peptide localization in dysplastic skin of non-tumor-bearing mice [2] | homing to angiogenic islets or tumors of RIP-Tag mice [8] | tissue localization of phage by immunohistochemical staining [9] | homing to tumor (squamous cell carcinomas) | homing to dysplastic skin (dysplastic skin lesions) | accumulation in control tissues / normal organs [7] | other results |
| --- | --- | --- | --- | --- | --- | --- | --- | --- | --- | --- |
| CDTAVVEGL (phage-displayed) | bound |  |  |  |  |  |  |  |  | enrichment in tumors in vivo relative to non-recombinant control phage (squamous cell carcinomas): 340 fold |
| CDTRL [tumor-homing peptide] | bound | at lower levels | primarily detected in tumor vasculature | not detected in the dysplastic skin of younger non-tumor bearing mice | neither peptide CGKRK (SEQ ID NO: 6) nor CDTRL (SEQ ID NO: 7) homed to angiogenic islets (dysplasias) or tumors | localized to large, dilated vessels throughout the dysplastic and hyperplastic skin | variable preference for squamous cell carcinomas and dysplastic lesions |  |  | homing to PDSC5 transplant tumor [3]: accumulated only in the melanoma xenografts; homing to C8161 melanoma xenograft [4]: accumulated only in the melanoma xenografts; homing to MMTV-PyMT breast carcinomas [5]: did home to breast carcinomas; homing to MDA-MB-435 xenograft [6]: accumulated only in the melanoma xenografts; affinity for hyperplastic skin ([7]; in vivo, K14-HPV16 mice): little affinity for hyperplastic skin; homing to normal skin of FVB/n mice ([7]; in vivo): no significant homing to normal skin; binding to cultured tumor cells (cultured tumor cells): bind a range of cultured tumor cells |
| CGKRK [tumor-homing peptide] | bound | at lower levels | primarily detected in tumor vasculature | not detected in the dysplastic skin of younger non-tumor bearing mice | neither peptide CGKRK (SEQ ID NO: 6) nor CDTRL (SEQ ID NO: 7) homed to angiogenic islets (dysplasias) or tumors | accumulated in tumor tissue | marked preference for the tumor | Some homing to dysplastic lesions | very low levels | homing to PDSC5 transplant tumor [3]: homed to cells in each of the three transplant tumors; homing to C8161 melanoma xenograft [4]: homed to cells in each of the three transplant tumors; homing to MMTV-PyMT breast carcinomas [5]: did home to breast carcinomas; subcellular localization in vascular cells ([6]; FIG. 4D, endothelial cells (CD31, Meca-32)): localized in the cytoplasm and nuclei of vascular cells; homing to MDA-MB-435 xenograft [6]: homed to cells in each of the three transplant tumors; binding to cultured tumor cells (cultured tumor cells): bind a range of cultured tumor cells; enrichment in tumors in vivo relative to non-recombinant control phage (squamous cell carcinomas): 80 to 1,000 fold |
| CGTKRKC (phage-displayed) | bound |  |  |  |  | detected to a lesser extent in dysplastic skin of tumor-bearing mice |  |  |  |  |
| CNRRTKAGC (phage-displayed) |  |  |  |  |  |  |  | highly selective for dysplastic skin | did not appreciably home to normal organs |  |
| CRAKSKVAC (phage-displayed) |  |  |  |  |  |  |  |  | accumulated with similar frequency in normal skin, kidney and brain | enrichment in dysplastic skin relative to non-recombinant control phage (dysplastic skin lesions): 1500 fold |
| CSRPRRSEC [dysplasia-homing peptide from CX7C library] |  | co-localized with Meca-32 in dysplastic skin vasculature | not detected within the squamous tumor | co-localized with Meca-32 in dysplastic skin vasculature | does not recognize pre-malignant lesions | accumulated in dysplastic skin | little homing to the tumor | effectively homed to dysplastic chest skin and dysplastic ear skin | did not significantly accumulate in control tissues | enrichment in dysplastic skin relative to non-recombinant control phage (dysplastic skin lesions): ~350 fold; homing to dysplastic skin (dysplastic skin lesions; listed as CSRPRRSRC): maintained the ability to home; homing to normal skin of FVB/n mice ([7]; in vivo): did not home to normal skin of FVB/n mice; binding to hyperplastic skin ex vivo [10]: did not bind to hyperplastic skin |
| D(KLAKLAK)2 |  |  |  |  |  |  |  |  |  | mitochondrial swelling (mitochondrial membranes): marked mitochondrial swelling |
